Measured values: patent US20260235581A1, “METHOD FOR THE SELECTION OF AN ECOBIOLOGICAL COMPOUND CAPABLE OF INCREASING THE SKIN TOLERANCE THRESHOLD” (NAOS INSTITUTE OF LIFE SCIENCE, priority 2023, published 2026)

Legend:
[1] = system: TAFA4; assay: TAFA4 synthesis in normal human fibroblast culture supernatant, dot blot; format: cell-based; details: for effect on the synthesis of TAFA4 (modulation of TAFA4 in the NHF supernatant): 72 hours of incubation, versus DMEM medium control set to 100%, valproic acid 0.025% and 0.05%, TGF-β 10 and 100 ng/ml, LPS 1 μg/ml; for doses with statistically significant induction of TAFA4 synthesis: NHF supernatant, 72 hours, Student test p<0.05, two doses tested
Protocol: Normal human fibroblasts (NHFs) have been used in this study (Lonza-Switzerland). The cells are seeded at 10,000 cells in 24-well plates in DMEM+1% Penicillin-streptomycin (P/S). After 72 hours of incubation at 37° C., 5% CO2, the supernatants and protein extracts (obtained from the cell layer) are recovered and stored at −80° C. Before assaying the TAFA4 protein, an evaluation of the toxicity of the compounds tested is performed using the MTT test. Only the concentrations which make it possible to obtain a viability greater than 80% are selected to be quantified by ELISA and dot blot. Dot blotting is an immunoenzymatic detection method for quantifying a protein in a sample after it has been deposited on a nitro-cellulose membrane in a well. Specific equipment (Biorad, France) is used with a nitrocellulose membrane. The device is subjected to a vacuum pressure which will make it possible to create the suctioning of the sample (supernatant or protein extract) and therefore, the binding of proteins to the nitrocellulose membrane. The equipment is placed at a height with respect to the vacuum pump, to respect the principle of gravity. The membrane is previously hydrated with 100 μl of TBS buffer (Tris base+NaCl diluted in water adjusted to pH 7.5) per well. This operation is repeated twice in order to optimise the hydration of the membrane for optimal binding of the proteins contained in the samples. The samples to be analysed (supernatants and protein extracts) and the different solutions of TAFA4 recombinant proteins at different concentrations of the TAFA4 standard range (0.78 to 100 ng/ml) are deposited in the plate (volume 100 μl/well used for the protein extracts and 500 μl/well-used for the supernatants) then the suction flow is activated. […] The presence of the TAFA4 protein on the membrane is conveyed by the formation of a grey to black spot depending on the intensity of the reaction and therefore on the quantity of protein. The membrane is read with the Fusion FX device (Vilber Lourmat) coupled with the VisionCapt software (Vilber Lourmat). The quantification of the TAFA4 protein in the samples tested is done with the VisionCapt software which makes it possible to measure the intensity of the various spots. The quantity of samples is then produced using the standard curve of the TAFA4 standard established with the recombinant protein The data have been collected from independent experiments performed in triplicate. Quantitative analyses are expressed in the form of mean±standard deviation. Statistical significance is determined by a Student test. […] The results are expressed as a percentage of TAFA4 expression by standardising the control to 100% (DMEM medium control). […]

[2] = system: pain/hypersensitivity felt locally in the skin; details: mice, injection subcutaneously or at the level of the neurons present in the bone marrow; cited from earlier work
[3] = system: KO mice for TAFA4; details: intradural injection; inflammatory pain agonist or partial lesion of the sciatic nerve; cited from earlier work
[4] = system: KO mice for TAFA4; details: UVC irradiation, intradermal injection post-irradiation; cited from earlier work

Row | Molecule | effect on the synthesis of TAFA4 (modulation of TAFA4 in the NHF supernatant) [1] | doses with statistically significant induction of TAFA4 synthesis [1] | duration of the reduction of pain/hypersensitivity post-injection [2] | effect on pain/hypersensitivity felt locally in the skin [2] | effect on increased hypersensitivity to pain of TAFA4 KO mice [3] | effect on 35-day post-irradiation inflammation resolution defect [4]
1 | TGF-β: TGF-β protein, 100-21, PEPROTECH | induce the synthesis of TAFA4 in a dose-dependent manner | 2 out of 2 doses |  |  |  | 
2 | human TAFA4 protein: TAFA Chemokine Like Family Member 4 protein, a neurokine; injected recombinant protein in literature mouse studies |  |  | up to 4 hours | reduces the pain/hypersensitivity felt locally in the skin | compensates for the condition of TAFA4 KO mice | can be compensated
3 | CCCC(CCC)C(=O)O [Valproic acid, reference compound] | induce the synthesis of TAFA4 in a dose-dependent manner | 1 out of 2 doses |  |  |  | 
